Experimental data published in ChEMBL document CHEMBL1201862, “PubChem BioAssay data set” (2004).
Active and inactive are the calls of the source.

Columns and labels:
Nonstructural protein 1 = Nonstructural protein 1 (Influenza A virus, UniProt Q194T2); format: functional, Influenza A virus (A/California/07/2009(H1N1))
[1] = target: Delta-type opioid receptor (Homo sapiens, UniProt P41143); experiment: Counterscreen for agonists of heterodimerization of the mu 1 (OPRM1) and delta 1 (OPRD1) opioid receptors: Luminescence-based cell-based high throughput dose response assay to identify agonists of OPRD1 homodimerization. [Related pubchem assays (depositor defined):AID504326, AID504355, AID504692, AID504904, AID504905]; format: functional
Mu-type opioid receptor = Mu-type opioid receptor (Homo sapiens, UniProt P35372); experiment: Counterscreen for agonists of heterodimerization of the mu 1 (OPRM1) and delta 1 (OPRD1) opioid receptors: Luminescence-based cell-based high throughput dose response assay to identify agonists of OPRM1 homodimerization.; format: functional;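 further: U2OS cells expressing OPRM1 and beta-arrestin as split beta-galactosidase partners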
[2] = target: 5-hydroxytryptamine receptor 5A (Homo sapiens, UniProt P47898); experiment: Counterscreen for agonists of OPRM1-OPRD1 heterodimerization: luminescence-based cell-based high throughput dose response assay to identify agonists of 5-hydroxytryptamine (serotonin) 5A receptor (HTR5A). [Related pubchem assays (depositor defined):AID504326, AID504355, AID504692, AID504904, AID504905]; format: functional
[3] = HeLa cell cytotoxicity, dose response, cytotoxicity control for MgcRacGAP inhibitor project (AID 624300); format: functional
[4] = target: T1, Rac GTPase-activating protein 1 (Homo sapiens, UniProt Q9H0H5); experiment: MgcRacGAP GTPase-activating activity inhibitors, confirmation, biochemical, ADP Hunter fluorescence, primary and confirmatory (AID 624330); format: functional
T1 sequence (Q9H0H5 whole entry): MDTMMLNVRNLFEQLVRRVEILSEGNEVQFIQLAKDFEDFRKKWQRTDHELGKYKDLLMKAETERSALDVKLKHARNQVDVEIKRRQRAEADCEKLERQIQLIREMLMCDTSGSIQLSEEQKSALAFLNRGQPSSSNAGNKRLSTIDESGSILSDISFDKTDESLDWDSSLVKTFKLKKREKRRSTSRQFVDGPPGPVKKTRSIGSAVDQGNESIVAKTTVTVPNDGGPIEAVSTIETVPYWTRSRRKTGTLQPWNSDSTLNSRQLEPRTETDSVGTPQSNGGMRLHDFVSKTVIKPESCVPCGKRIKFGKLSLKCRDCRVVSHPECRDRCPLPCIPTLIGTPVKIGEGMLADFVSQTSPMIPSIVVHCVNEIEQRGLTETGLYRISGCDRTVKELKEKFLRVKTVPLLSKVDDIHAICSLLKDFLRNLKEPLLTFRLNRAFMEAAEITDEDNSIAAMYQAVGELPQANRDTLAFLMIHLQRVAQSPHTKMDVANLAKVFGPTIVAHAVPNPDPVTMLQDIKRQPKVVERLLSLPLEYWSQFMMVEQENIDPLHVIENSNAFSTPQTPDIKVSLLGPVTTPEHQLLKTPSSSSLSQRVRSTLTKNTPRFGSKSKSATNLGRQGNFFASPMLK

[5] = THP-1 cell cytotoxicity, dose response, cytotoxicity control for Vif-APOBEC3G degradation inhibitor project, THP-1 cells (AID 1117359); format: functional; conditions: Human immunodeficiency virus 1, THP-1
[6] = target: Glutathione-S-transferase (Schistosoma japonicum, UniProt Q26513); experiment: biotin-GST/anti-GST TR-FRET signal inhibitors, dose response, artefact control for Vif-APOBEC3G degradation inhibitor project, biochemical (AID 1117362); format: functional
[7] = inhibitors of firefly luciferase expression or activity, dose response, H4 neuroglioma cells, luminescence (AID 1990); format: functional, cell-based
[8] = Luminescence Cell-Based Dose Response HTS to Identify Inhibitors of 5'UTR Stem-Loop Driven Prion Protein mRNA Translation in H4 Neuroglioblastoma Cells. [Related pubchem assays: 1827 (Project Summary), 1813 (Primary HTS)]; format: functional
[9] = target: T2, Heat shock factor protein 1 (Mus musculus, UniProt P38532); experiment: inhibition of MG132-induced HSE-luciferase signal, confirmation, cell-based, NIH3T3, luminescence, dose retest (AID 2382); format: functional;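 further: NIH3T3 fibroblasts with HSF1-driven luciferase reporter stressed by proteasome inhibitor MG132; luminescence from HSF1-driven luciferase expression after 8 hours of MG132 stress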
T2 sequence (P38532 whole entry): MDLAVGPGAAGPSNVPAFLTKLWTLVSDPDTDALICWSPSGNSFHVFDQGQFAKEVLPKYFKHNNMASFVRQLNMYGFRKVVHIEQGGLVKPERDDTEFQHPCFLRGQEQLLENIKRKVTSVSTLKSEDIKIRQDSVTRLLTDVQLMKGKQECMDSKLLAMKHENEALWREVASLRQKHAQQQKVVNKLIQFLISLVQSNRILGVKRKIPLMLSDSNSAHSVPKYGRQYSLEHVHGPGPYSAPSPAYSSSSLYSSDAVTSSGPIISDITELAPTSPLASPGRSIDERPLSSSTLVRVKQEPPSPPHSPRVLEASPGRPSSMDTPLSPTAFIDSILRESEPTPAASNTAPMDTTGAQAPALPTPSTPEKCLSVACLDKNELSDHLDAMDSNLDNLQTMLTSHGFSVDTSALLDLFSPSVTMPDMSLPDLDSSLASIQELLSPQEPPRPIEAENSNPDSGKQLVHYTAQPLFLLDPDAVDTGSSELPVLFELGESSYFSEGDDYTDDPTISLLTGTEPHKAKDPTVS

[10] = inhibitors of SNCA 5'UTR-driven reporter translation, confirmation, H4 neuroglioma cells, luminescence (AID 1988); format: functional, cell-based
[11] = target: Heat shock protein HSP 90-alpha (Homo sapiens, UniProt P07900); experiment: Luminescence-based dose response biochemical high throughput screening assay for inhibitors of the Heat Shock Protein 90 (HSP90). [Related pubchem assays: 1831 (Summary AID.), 1846 (Confirmation screen.), 1789 (Primary screen.)]
[12] = target: Luciferin 4-monooxygenase (Photuris pensylvanica, UniProt Q27757); experiment: firefly luciferase enzyme inhibitors, dose response, counter-screen for HSF-1 reporter inhibitor project, biochemical, Cell Titer Glo, luminescence, cherry-picks (AID 588847)
[13] = Shn3 3'UTR reporter inhibitors, dose response, cell-based, Clone20 osteoblasts, firefly luciferase, cherry-picked (AID 624132); format: functional;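 further: firefly luciferase luminescence from reporter carrying the Shn3 3'UTR in osteoblasts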
[14] = HepG2 cell cytotoxicity, dose response, cytotoxicity control for Shn3 inhibitor project, CellTiter-Glo, cherry-picked (AID 624134); format: functional, cell-based
[15] = control 3'UTR Renilla luciferase suppression, dose response, counter-screen for Shn3 inhibitor project, cell-based, Clone20-Shn3RL, cherry-picked (AID 624133); format: functional
[16] = inhibitors of HIV Env-driven cell fusion, dose response, cherry-pick (AID 652057); format: functional, cell-based
[17] = CEM21 lymphoblast cell cytotoxicity, dose response, cytotoxicity control for viral fusion inhibitor project, CellTiter-Glo luminescence, cherry-picked (AID 652042); format: functional, cell-based;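 further: potency for signal decrease meaning cytotoxicity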
[18] = ZM109 Env clade C HIV-1 fusion inhibitors, dose response, HeLa effector, CEM target cells, luciferase, cherry-pick (AID 652058); format: functional, cell-based
Paired box protein Pax-8 = Paired box protein Pax-8 (Homo sapiens, UniProt Q06710); experiment: inhibitors of PAX8-driven TPO luciferase reporter, dose response, RMG-I cells, cherry-pick (AID 687027); format: functional, cell-based;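 further: luciferase reporter driven by Pax8 target thyroperoxidase promoter measured by SteadyGlo luminescence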
[19] = off-target signal loss in HeLa-CEM21 co-culture – HeLa F-luc CTL cells, cherry-picked, counter-screen for HIV-1 Env fusion inhibitor project, dose response (AID 652040); format: functional, cell-based;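 further: potency for signal decrease marking cytotoxic or nonspecific inhibition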
[20] = inhibitors of clade B AD8 Env fusion, dose response, cell-based, cherry-pick (AID 652062); format: functional;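 further: luciferase signal from cell-cell fusion driven by HIV-1 clade B AD8 Env; potency is for inhibitors of fusion seen as a drop in luminescence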
[21] = non-specific cell cytotoxicity, dose response, cytotoxicity control for PAX8 inhibitor project, plate reader, dry powder samples (AID 743021); format: functional, cell-based
HEK293 [22] = experiment: cytotoxicity in HEK293T NF-kB-Luc cells, SAR follow-up, cytotoxicity control for NF-kB activator project, cell-based, resazurin fluorescence (AID 493251); format: functional; conditions: Homo sapiens
[23] = Fluorescence polarization-based biochemical high throughput dose response assay for activators of the Protein Kinase A-R1A (PKA-R1A) complex. [Related pubchem assays (depositor defined):AID504704, AID504707, AID504799, AID504800]
[24] = Fluorescence polarization-based biochemical high throughput dose response assay for activators of the Protein Kinase A-R2B (PKA-R2B) complex. [Related pubchem assays (depositor defined):AID504700, AID504704, AID504796, AID504797]
[25] = target: Beta-2 adrenergic receptor (Homo sapiens, UniProt P07550); experiment: beta2AR agonists driving receptor internalization, dose response, cell-based, FAP fluorogen, flow cytometry, cherry pick 1 (AID 588763); format: functional
[26] = target: T3, Voltage-gated N-type calcium channel alpha-1B subunit/Amyloid beta A4 precursor protein-binding family A member 1 (Homo sapiens, UniProt Q00975+Q02410); format: protein assay
[27] = target: T3, Voltage-gated N-type calcium channel alpha-1B subunit/Amyloid beta A4 precursor protein-binding family A member 1; format: protein assay; remark: listed apart in the source
[28] = target: T4, Bifunctional protein GlmU (Mycobacterium tuberculosis, UniProt P9WMN3); experiment: Inhibitors of Mycobacterial Glucosamine-1-phosphate acetyl transferase (GlmU). Secondary screen.; set-up: species or system Mycobacterium tuberculosis H37Rv
T4 sequence (P9WMN3 whole entry): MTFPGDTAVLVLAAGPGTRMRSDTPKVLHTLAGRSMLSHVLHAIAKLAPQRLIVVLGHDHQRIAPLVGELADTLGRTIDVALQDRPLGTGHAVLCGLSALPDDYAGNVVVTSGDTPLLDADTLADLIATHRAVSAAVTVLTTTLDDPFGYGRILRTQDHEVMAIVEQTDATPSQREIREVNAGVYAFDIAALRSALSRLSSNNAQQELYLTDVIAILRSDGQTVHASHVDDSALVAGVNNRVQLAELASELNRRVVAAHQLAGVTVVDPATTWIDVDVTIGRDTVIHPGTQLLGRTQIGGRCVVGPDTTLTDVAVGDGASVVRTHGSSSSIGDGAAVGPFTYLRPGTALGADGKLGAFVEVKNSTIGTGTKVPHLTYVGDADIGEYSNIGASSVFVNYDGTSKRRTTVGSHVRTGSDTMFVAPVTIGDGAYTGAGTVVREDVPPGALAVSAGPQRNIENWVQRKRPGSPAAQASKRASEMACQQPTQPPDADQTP

[29] = target: Beta-adrenergic receptor kinase 1 (Homo sapiens, UniProt P25098); experiment: aptamer displacement from bead-bound GRK2 – biochemical, cherry pick 1, bead flow cytometry, dose response (AID 504500)
HEK293 [30] = experiment: inhibitors of LMP1-driven NF-kB reporter, dose response, cell-based, HEK293, luciferase, cherry-pick (AID 588343); format: functional; conditions: Homo sapiens
Caspase-6 = target: T5, Caspase-6 (Homo sapiens, UniProt P55212); experiment: human caspase-6 inhibitors, dose response, biochemical, VEID-R110 fluorescence, cherry-pick (AID 720632)
T5 sequence (P55212 whole entry): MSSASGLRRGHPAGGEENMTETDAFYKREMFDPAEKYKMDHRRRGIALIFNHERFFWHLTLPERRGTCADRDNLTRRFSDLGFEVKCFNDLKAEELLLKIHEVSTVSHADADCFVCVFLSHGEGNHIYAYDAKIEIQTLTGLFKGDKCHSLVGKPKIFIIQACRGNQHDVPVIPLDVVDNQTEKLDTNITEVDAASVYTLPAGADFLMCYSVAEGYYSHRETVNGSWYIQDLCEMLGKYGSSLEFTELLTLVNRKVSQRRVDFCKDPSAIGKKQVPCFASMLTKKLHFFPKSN

[31] = target: Histone-lysine N-methyltransferase NSD2 (Homo sapiens, UniProt O96028); format: biochemical
[32] = LGR2 antagonists, dose response, cell-based, HEK293, CRE-luciferase reporter, cherry pick, set 2 (AID 743343); format: functional;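 further: transfected cells were stimulated with diluted bursicon conditioned medium after compound addition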
[33] = MC4R antagonists, dose response, counter-screen for LGR2 antagonist project, cell-based, plate reader, cherry pick (AID 743444); format: functional;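 further: transfected HEK 293 cells stimulated with alpha-MSH peptide; potency of inhibitors of the alpha-MSH evoked signal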

T3 sequence (Q00975 whole entry): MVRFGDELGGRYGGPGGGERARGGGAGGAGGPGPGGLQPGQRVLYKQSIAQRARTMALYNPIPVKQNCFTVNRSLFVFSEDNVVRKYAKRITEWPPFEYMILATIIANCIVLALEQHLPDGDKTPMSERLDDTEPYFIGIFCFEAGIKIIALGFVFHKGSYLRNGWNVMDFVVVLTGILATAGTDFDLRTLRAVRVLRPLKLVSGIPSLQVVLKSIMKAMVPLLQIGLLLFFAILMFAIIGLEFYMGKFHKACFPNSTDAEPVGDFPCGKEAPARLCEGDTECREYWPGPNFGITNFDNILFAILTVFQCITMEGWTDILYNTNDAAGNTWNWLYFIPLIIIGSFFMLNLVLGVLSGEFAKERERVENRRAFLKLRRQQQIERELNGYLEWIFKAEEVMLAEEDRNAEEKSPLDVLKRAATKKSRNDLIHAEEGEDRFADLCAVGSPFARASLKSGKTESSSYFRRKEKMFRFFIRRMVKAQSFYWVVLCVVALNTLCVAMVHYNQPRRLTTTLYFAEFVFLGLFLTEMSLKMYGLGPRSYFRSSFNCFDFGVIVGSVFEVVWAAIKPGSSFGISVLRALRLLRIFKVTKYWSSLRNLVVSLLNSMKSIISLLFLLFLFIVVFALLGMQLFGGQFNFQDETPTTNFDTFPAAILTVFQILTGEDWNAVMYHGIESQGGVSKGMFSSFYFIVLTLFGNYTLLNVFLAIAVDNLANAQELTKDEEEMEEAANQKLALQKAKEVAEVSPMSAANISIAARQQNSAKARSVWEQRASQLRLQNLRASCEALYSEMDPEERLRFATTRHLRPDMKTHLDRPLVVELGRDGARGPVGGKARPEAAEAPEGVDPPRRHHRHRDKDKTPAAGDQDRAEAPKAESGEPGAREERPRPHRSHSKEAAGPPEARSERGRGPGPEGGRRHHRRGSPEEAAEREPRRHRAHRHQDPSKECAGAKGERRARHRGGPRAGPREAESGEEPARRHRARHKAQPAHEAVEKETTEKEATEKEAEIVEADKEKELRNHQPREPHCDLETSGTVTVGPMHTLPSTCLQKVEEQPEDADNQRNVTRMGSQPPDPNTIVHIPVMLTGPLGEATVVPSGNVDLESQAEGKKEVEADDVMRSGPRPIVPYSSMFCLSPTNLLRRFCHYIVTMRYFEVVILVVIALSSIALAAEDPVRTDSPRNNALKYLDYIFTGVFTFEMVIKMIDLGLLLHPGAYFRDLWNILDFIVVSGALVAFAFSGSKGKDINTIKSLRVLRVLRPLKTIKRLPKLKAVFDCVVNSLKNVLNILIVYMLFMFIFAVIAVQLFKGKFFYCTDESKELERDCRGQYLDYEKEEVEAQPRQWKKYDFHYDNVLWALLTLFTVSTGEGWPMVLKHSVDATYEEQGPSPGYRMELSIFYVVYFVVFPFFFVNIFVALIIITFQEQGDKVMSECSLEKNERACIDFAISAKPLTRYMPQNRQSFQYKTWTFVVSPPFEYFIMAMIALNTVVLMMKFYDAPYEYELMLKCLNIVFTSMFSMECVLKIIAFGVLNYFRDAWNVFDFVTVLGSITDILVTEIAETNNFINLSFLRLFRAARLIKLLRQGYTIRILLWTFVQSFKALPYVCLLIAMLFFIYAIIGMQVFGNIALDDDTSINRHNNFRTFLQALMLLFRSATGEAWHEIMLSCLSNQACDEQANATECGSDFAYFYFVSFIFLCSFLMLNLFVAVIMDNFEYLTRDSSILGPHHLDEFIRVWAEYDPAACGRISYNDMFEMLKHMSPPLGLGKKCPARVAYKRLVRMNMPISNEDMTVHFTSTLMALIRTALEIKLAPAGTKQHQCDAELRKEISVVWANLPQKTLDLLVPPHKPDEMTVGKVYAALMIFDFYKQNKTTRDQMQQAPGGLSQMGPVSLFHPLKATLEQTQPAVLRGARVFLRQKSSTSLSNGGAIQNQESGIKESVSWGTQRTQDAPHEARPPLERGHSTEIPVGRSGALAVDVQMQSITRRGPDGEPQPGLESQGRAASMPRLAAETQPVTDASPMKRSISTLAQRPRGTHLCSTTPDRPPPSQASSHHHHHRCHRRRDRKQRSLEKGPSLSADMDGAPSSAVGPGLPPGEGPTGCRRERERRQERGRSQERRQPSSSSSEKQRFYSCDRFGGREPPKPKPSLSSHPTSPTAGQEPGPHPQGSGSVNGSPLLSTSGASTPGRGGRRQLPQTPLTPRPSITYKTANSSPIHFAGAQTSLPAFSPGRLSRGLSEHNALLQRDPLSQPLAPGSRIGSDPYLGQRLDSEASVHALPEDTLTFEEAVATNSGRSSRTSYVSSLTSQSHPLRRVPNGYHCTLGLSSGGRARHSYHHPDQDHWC
T3 sequence (Q02410 whole entry): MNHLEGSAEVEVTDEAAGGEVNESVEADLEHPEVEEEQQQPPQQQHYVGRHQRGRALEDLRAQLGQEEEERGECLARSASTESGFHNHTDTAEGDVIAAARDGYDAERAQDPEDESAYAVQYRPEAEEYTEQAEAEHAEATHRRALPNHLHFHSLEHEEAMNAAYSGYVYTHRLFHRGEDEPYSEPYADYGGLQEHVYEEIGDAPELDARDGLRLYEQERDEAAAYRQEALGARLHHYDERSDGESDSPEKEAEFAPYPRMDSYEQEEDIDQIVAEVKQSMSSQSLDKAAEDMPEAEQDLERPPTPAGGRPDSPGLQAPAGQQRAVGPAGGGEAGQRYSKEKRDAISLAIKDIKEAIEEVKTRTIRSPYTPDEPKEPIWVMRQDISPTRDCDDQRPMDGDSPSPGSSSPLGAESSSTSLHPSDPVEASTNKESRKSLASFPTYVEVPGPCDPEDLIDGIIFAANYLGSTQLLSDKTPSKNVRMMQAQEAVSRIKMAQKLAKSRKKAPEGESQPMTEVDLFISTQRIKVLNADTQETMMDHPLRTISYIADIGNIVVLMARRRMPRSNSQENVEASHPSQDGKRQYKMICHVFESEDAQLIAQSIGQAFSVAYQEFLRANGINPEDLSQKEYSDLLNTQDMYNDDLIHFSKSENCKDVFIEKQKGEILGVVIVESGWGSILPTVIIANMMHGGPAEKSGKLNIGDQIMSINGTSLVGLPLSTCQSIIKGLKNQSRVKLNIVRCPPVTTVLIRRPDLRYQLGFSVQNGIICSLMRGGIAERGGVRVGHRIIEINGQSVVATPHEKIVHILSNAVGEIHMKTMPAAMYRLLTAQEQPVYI
Chain of Nonstructural protein 1 (Q194T2 whole entry): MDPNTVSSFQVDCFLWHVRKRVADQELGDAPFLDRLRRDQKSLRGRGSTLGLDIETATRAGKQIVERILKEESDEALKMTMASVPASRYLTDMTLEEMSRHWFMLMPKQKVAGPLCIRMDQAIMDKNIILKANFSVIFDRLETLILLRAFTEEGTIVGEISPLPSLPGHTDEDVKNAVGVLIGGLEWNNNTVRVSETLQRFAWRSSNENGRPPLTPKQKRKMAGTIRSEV
Chain of Beta-2 adrenergic receptor (P07550 whole entry): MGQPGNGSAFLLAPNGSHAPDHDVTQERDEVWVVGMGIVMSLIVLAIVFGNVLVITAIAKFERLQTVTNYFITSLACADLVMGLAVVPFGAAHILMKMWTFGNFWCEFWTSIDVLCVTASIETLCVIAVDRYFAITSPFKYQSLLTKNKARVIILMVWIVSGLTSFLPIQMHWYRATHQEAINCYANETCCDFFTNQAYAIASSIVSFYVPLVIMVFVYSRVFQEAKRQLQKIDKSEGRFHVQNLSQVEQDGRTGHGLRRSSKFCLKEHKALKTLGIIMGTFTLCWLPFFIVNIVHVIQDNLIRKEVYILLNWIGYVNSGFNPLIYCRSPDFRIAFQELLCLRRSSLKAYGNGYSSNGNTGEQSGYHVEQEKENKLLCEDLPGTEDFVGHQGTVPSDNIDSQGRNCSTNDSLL
Chain of Beta-adrenergic receptor kinase 1 (P25098 whole entry): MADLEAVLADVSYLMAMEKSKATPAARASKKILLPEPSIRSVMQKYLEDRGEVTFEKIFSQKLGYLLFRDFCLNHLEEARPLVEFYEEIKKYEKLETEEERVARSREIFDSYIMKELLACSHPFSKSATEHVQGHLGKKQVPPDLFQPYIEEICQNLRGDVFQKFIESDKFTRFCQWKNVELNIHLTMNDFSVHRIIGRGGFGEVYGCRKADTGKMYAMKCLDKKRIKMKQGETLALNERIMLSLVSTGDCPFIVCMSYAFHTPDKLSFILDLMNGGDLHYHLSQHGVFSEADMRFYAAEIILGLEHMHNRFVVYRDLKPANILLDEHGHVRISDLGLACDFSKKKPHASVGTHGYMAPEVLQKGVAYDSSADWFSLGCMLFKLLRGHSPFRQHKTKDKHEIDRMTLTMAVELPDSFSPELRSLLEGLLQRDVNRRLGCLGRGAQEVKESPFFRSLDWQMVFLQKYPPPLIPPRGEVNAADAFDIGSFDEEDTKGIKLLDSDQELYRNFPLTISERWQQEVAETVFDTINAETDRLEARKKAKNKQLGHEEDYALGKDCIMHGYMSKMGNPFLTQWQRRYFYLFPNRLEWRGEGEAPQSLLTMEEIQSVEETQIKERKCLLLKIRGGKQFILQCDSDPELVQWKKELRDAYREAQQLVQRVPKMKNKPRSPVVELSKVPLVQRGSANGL
Chain of Luciferin 4-monooxygenase (Q27757 whole entry): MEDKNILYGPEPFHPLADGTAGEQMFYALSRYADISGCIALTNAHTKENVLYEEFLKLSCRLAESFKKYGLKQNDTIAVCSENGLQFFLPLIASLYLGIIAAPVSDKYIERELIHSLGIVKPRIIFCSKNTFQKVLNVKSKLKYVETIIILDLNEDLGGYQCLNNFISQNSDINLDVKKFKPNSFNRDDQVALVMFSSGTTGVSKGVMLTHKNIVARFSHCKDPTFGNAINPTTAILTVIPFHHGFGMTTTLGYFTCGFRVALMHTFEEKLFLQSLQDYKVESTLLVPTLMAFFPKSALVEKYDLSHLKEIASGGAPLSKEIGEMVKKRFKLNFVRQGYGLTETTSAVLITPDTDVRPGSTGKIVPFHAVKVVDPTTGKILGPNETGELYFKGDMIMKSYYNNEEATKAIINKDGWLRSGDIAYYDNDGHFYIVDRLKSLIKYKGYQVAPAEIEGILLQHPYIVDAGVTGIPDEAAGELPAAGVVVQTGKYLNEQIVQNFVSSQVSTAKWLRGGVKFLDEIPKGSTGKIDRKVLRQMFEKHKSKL

CCN(CC)Cc1cc(Nc2c3ccccc3nc3c4ccccc4n(C)c23)cc(CN(CC)CC)c1O
IC50 (Nonstructural protein 1): 17.9 µM (active) | EC50 [1]: 1.49 µM (active) | EC50 (Mu-type opioid receptor): > 92.6 µM (inactive) | EC50 [2]: > 92.6 µM (inactive) | CC50 [3]: 80 µM (active) | IC50 [4]: 22.1 µM (active) | CC50 [5]: 11 µM (active) | IC50 [6]: 59.5 µM (active)

CC1CCN(c2ccc(-c3cccc(NC(=O)C(F)(F)F)c3)nn2)CC1
EC50 [7]: 5.09 µM (inconclusive) | EC50 [8]: 8.19 µM (active) | EC50 [9]: < 0.16 µM (active) | EC50 [10]: 0.475 µM (inconclusive) | IC50 [11]: 8.01 µM (active) | AC50 [12]: 29.2 µM (active) | AC50 [13]: 2.74 µM (active) | AC50 [14]: 44.1 µM (active) | AC50 [15]: 3.1 µM (active) | AC50 [16]: 2.55 µM (active) | AC50 [17]: 32.2 µM (active) | AC50 [18]: 36.5 µM (active) | AC50 (Paired box protein Pax-8): 3.37 µM (active) | AC50 [19]: 4.11 µM (active) | AC50 [20]: 11.5 µM (active) | AC50 [21]: 32 µM (active)

Cc1oc(-c2ccccc2)nc1CSCC(=O)NC1CC1
IC50 (HEK293 [22]): > 80 µM (inactive)

CCCC(=O)Nc1ncnc2c1ncn2[C@@H]1O[C@@H]2OP(=O)(O)OC[C@H]2[C@H]1OC(=O)CCC
EC50 [23]: 6.7 µM (active) | EC50 [24]: 9.1 µM (active)

CC1=C(C(=O)Nc2ccc(C(=O)N3CCN(c4ccccc4F)CC3)cc2)SCCO1
EC50 [25]: 3.01 µM (active)

O=C(O)c1c2c(nc3ccccc13)/C(=C/c1ccc(O)cc1)CC2
IC50 [26]: 3.85 µM (active) | IC50 [27]: 18.4 µM (active) | IC50 [28]: 124 µM (active) | EC50 [29]: 33.3 µM (inactive) | AC50 (HEK293 [30]): 1.93 µM (active) | AC50 (Caspase-6): 2 µM (active) | AC50 [31]: 9.03 µM (active) | AC50 [32]: 6.42 µM (active) | AC50 [33]: 6.44 µM (active)
